Patent US9365506B2, “Compounds and compositions as TLR2 agonists” (NOVARTIS AG, priority 2010, dated 2016)

Molecular target: human TLR2 (Homo sapiens, UniProt O60603)
Experiment: Reporter gene assay: HEK 293 cells stably transfected with human TLR2 and NF-kB-driven luciferase reporter
Settings: for Emax: HEK293, 7 h, read-out: Hek-TLR2 (% Eff); for EC50: Hek-TLR2 μM (EC50), HEK 293 stably transfected with human TLR2 and pNifty-Luciferase, 7 hours incubation, concentration giving 50% of maximal signal
Experimental: As a control assay, normal Hek293 transfected with pNifty-Luc were used. […] Bright-Glo™ Luciferase assay buffer and substrate were supplied by Promega #E263B and #E264B (assay substrate and buffer respectively). 384 well clear-bottom plates were supplied by Greiner bio-one (#789163-G) and were custom bar-coded plates.
Cells were plated at 25,000 cells/well in 384-well plates in a final volume of 50 μl of media. Cells were allowed to adhere to the plates after overnight (18 hours) culture at 37° C. and 5% CO2. Serially diluted experimental and positive control compounds were then dispensed to each well and incubated for 7 hours at 37° C. and 5% CO2. Cells stimulated with DMSO alone also serve as negative controls. After the incubation, 30 μl of the pre-mix assay buffer and substrate buffer were added to each well according to manufacturer's instructions. The luminescence signal was read on a CLIPR machine with an integration time of 20 seconds per plate.

Chain of human TLR2 (O60603 21-784): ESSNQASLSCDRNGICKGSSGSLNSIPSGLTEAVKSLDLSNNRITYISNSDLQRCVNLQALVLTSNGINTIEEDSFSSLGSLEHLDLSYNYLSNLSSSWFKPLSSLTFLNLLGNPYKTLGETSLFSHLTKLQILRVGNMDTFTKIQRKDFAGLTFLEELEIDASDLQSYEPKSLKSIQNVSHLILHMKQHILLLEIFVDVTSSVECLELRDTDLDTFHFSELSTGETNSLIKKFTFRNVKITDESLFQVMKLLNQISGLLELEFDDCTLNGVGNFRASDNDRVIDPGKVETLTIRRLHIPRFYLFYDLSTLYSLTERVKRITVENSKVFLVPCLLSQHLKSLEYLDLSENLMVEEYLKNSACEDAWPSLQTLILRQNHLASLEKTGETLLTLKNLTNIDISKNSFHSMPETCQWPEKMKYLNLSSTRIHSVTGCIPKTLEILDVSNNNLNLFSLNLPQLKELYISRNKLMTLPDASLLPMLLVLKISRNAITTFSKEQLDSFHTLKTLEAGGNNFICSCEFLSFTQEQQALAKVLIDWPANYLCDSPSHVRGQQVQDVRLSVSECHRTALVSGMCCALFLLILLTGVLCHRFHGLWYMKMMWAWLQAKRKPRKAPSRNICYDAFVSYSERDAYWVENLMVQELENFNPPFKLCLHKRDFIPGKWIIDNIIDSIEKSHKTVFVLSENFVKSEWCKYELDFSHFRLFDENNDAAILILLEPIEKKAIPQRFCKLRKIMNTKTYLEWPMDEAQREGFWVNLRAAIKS

`CCCCCCCCCCCCCCCC(=O)N[C@@H](CSC[C@@H](COC(=O)CCCCCCCCCCC)OC(=O)CCCCCCCCCCC)C(=O)NCCCOCCOCCOCCCNC(=O)CCC1OCCO1` [Example 40, (20R,24R)-1-(1,3-dioxolan-2-yl)-3,19-dioxo-20-palmitamido-8,11,14-trioxa-22-thia-4,18-diazapentacosane-24,25-diyl didodecanoate] gave an Emax of 25% and an EC50 of 96 nM.

`CCCCCCCCCCCC(=O)OC[C@H](CSC[C@H](N)C(=O)NCCc1ccc(OCCOCCO)cc1)OC(=O)CCCCCCCCCCC` [Example 41, (R)-3-(((R)-2-amino-3-((4-(2-(2-hydroxyethoxy)ethoxy)phenethyl)amino)-3-oxopropyl)thio)propane-1,2-diyl didodecanoate] gave an Emax of 61% and an EC50 of 15300 nM.

`CCCCCCCCCCCC(=O)OC[C@H](CSC[C@H](N)C(=O)NCCCCCCCCCC(=O)O)OC(=O)CCCCCCCCCCC` [Example 42, 10-((R)-2-amino-3-(((R)-2,3-bis(dodecanoyloxy)propyl)thio)propanamido)decanoic acid] showed an Emax of 101% and an EC50 of 4400 nM.

With `CCCCCCCCCCCC(=O)OC[C@H](CSC[C@H](N)C(=O)NC(C)(C)CO)OC(=O)CCCCCCCCCCC` [Example 43, (R)-3-(((R)-2-amino-3-((1-hydroxy-2-methylpropan-2-yl)amino)-3-oxopropyl)thio)propane-1,2-diyl didodecanoate] the Emax was 54% and the EC50 was 15500 nM.

`CCCCCCCCCCCC(=O)OC[C@H](CSC[C@H](N)C(=O)NCCc1ccc(OCCC(C)C)cc1)OC(=O)CCCCCCCCCCC` [Example 44, (R)-3-(((R)-2-amino-3-((4-(isopentyloxy)phenethyl)amino)-3-oxopropyl)thio)propane-1,2-diyl didodecanoate] showed an Emax of 72% and an EC50 of 8170 nM.

`CCCCCCCCCCCC(=O)OC[C@H](CSC[C@H](N)C(=O)NCCc1cccc(O)c1)OC(=O)CCCCCCCCCCC` [Example 49, (R)-3-(((R)-2-amino-3-((3-hydroxyphenethyl)amino)-3-oxopropyl)thio)propane-1,2-diyl didodecanoate] was tested, and the Emax was 51% and the EC50 was > 21000 nM.

`CCCCCCCCCCCC(=O)OC[C@H](CSC[C@H](N)C(=O)NCCOCCOCCN)OC(=O)CCCCCCCCCCC` [Example 54, (11R,15R)-1,11-diamino-10-oxo-3,6-dioxa-13-thia-9-azahexadecane-15,16-diyl didodecanoate] was tested, and the Emax was 101% and the EC50 was 1290 nM.

With `CCCCCCCCCCCC(=O)OC[C@H](CSC[C@H](N)C(=O)NCCCCCCN)OC(=O)CCCCCCCCCCC` [Example 56, (R)-3-(((R)-2-amino-3-((6-aminohexyl)amino)-3-oxopropyl)thio)propane-1,2-diyl didodecanoate] the Emax was 107% and the EC50 was 1220 nM.

`CCCCCCCCCCCC(=O)OC[C@H](CSC[C@H](N)C(=O)NCCCCN)OC(=O)CCCCCCCCCCC` [Example 57, (R)-3-(((R)-2-amino-3-((4-aminobutyl)amino)-3-oxopropyl)thio)propane-1,2-diyl didodecanoate] gave an Emax of 111% and an EC50 of 1040 nM.

Compound `CCCCCCCCCCCC(=O)OC[C@H](CSC[C@H](N)C(=O)NCCCN1CCOCC1)OC(=O)CCCCCCCCCCC` [Example 59, (R)-3-(((R)-2-amino-3-((3-morpholinopropyl)amino)-3-oxopropyl)thio)propane-1,2-diyl didodecanoate] has an Emax of 121% and an EC50 of 710 nM.

For `CCCCCCCCCCCC(=O)OC[C@H](CSC[C@H](N)C(=O)NCCCn1ccnc1)OC(=O)CCCCCCCCCCC` [Example 60, (R)-3-(((R)-3-((3-(1H-imidazol-1-yl)propyl)amino)-2-amino-3-oxopropyl)thio)propane-1,2-diyl didodecanoate], the Emax was 119% and the EC50 was 410 nM.

`CCCCCCCCCCCC(=O)OC[C@H](CSC[C@H](N)C(=O)NC(CC)COC)OC(=O)CCCCCCCCCCC` (stereo partly drawn) [Example 63, (2R)-3-(((2R)-2-amino-3-((1-methoxybutan-2-yl)amino)-3-oxopropyl)thio)propane-1,2-diyl didodecanoate] was tested, and the Emax was 96% and the EC50 was 71.8 nM.

Work on `CCCCCCCCCCCC(=O)OC[C@H](CSC[C@H](N)C(=O)NCCCOCCOCCOCCCN)OC(=O)CCCCCCCCCCC` [Example 64, (16R,20R)-1,16-diamino-15-oxo-4,7,10-trioxa-18-thia-14-azahenicosane-20,21-diyl didodecanoate] yielded an Emax of 124% and an EC50 of 498 nM.

`CCCCCCCCCCCC(=O)OC[C@H](CSC[C@H](N)C(=O)NC(Cc1ccccc1)c1ccccc1)OC(=O)CCCCCCCCCCC` (stereo partly drawn) [Example 67, (2R)-3-(((2R)-2-amino-3-((1,2-diphenylethyl)amino)-3-oxopropyl)thio)propane-1,2-diyl didodecanoate] was tested, and the Emax was 64% and the EC50 was 68 nM.

Work on `CCCCCCCCCCCC(=O)OC[C@H](CSC[C@H](N)C(=O)NCCc1ccc(Oc2ccccc2)cc1)OC(=O)CCCCCCCCCCC` [Example 68, (R)-3-(((R)-2-amino-3-oxo-3-((4-phenoxyphenethyl)amino)propyl)thio)propane-1,2-diyl didodecanoate] yielded an Emax of 77% and an EC50 of 4080 nM.

`CCCCCCCCCCCC(=O)OC[C@H](CSC[C@H](N)C(=O)NC(C)CCCN(CC)CC)OC(=O)CCCCCCCCCCC` (stereo partly drawn) [Example 69, (2R)-3-(((2R)-2-amino-3-((5-(diethylamino)pentan-2-yl)amino)-3-oxopropyl)thio)propane-1,2-diyl didodecanoate] showed an Emax of 118% and an EC50 of 257 nM.

`CCCCCCCCCCCC(=O)OC[C@H](CSC[C@H](N)C(=O)NCCCC(C)(C)CO)OC(=O)CCCCCCCCCCC` [Example 72, (R)-3-(((R)-2-amino-3-((5-hydroxy-4,4-dimethylpentyl)amino)-3-oxopropyl)thio)propane-1,2-diyl didodecanoate] gave an Emax of 49% and an EC50 of 30700 nM.

With `CCCCCCCCCCCC(=O)OC[C@H](CSC[C@H](N)C(=O)NC(C)CCC(C)C)OC(=O)CCCCCCCCCCC` (stereo partly drawn) [Example 74, (2R)-3-(((2R)-2-amino-3-((5-methylhexan-2-yl)amino)-3-oxopropyl)thio)propane-1,2-diyl didodecanoate] the Emax was 105% and the EC50 was 190 nM.

In the case of `CCCCCCCCCCCCCCCC(=O)N[C@@H](CSC[C@@H](COC(=O)CCCCCCCCCCC)OC(=O)CCCCCCCCCCC)C(=O)N[C@@H](C)C(=O)N[C@H](CCC(=O)O)C(N)=O` [Example 75, (4R,7S,10R,14R)-4-carbamoyl-14-(dodecanoyloxy)-7-methyl-6,9,17-trioxo-10-palmitamido-16-oxa-12-thia-5,8-diazaoctacosan-1-oic acid], the Emax is reported as 58% and the EC50 is reported as 960 nM.

Work on `CCCCCCCCCCCCCCCCOC[C@H](CSC[C@H](N)C(=O)NCCOCCOCCOCCP(=O)(O)O)OCCCCCCCCCCCCCCCC` [Example 76, ((14R,18R)-14-amino-18-(hexadecyloxy)-13-oxo-3,6,9,20-tetraoxa-16-thia-12-azahexatriacontyl)phosphonic acid] yielded an Emax of 109% and an EC50 of 3450 nM.

`CCCCCCCCCCCC(=O)OC[C@H](CSC[C@H](N)C(=O)NCCOCCOCCOCCOCCP(=O)(O)O)OC(=O)CCCCCCCCCCC` [Example 77, ((17R,21R)-17-amino-21-(dodecanoyloxy)-16,24-dioxo-3,6,9,12,23-pentaoxa-19-thia-15-azapentatriacontyl)phosphonic acid] was tested, and the Emax was 100% and the EC50 was 38 nM.
